Results on 42 molecules are retold here after patent US20210024483A1, “HETEROCYLCOALKENYL DERIVATIVES USEFUL AS AGONISTS OF THE GPR120 AND / OR GPR40” (Janssen Pharmaceutica NV, priority 2018, published 2021).

Structures are written as SMILES.

Experiment [1] has as its target T1, Human GPR120 short form (short splice variant, NM_001195755.1) (Homo sapiens, UniProt Q5NUL3).
T1 construct: expressed in transfected cells; host or cells: HEK293
T1 sequence (Q5NUL3 1-361): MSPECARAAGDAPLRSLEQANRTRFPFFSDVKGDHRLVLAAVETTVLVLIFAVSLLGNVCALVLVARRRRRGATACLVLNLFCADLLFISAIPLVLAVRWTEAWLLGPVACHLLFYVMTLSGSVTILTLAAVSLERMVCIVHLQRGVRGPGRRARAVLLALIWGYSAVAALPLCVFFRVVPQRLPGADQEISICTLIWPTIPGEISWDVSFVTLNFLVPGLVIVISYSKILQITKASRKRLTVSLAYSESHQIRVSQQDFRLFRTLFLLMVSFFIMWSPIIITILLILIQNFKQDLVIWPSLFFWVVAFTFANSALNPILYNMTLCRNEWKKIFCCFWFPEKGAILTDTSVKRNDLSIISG
Nature of the experiment: Human GPR120 Calcium Flux Assay. Format: cell-based. To be noted: HEK-293 cells, 4200 cells/well, read-out: Human GPR120 Calcium Flux Assay Procedure B EC50. The text has this:
In Vitro Assay: Human GPR120 in Calcium Flux Assay
This in vitro assay serves to assess test compound agonist activity against the short splice variant (SVS with Accession number NM_001195755.1 confirmed by sequencing data) of the GPR120 receptor. The Human Short splice variant #2 (NM_001195755.1) is missing an in-frame coding exon compared to variant 1 (the Human Long splice variant NM_181745.3), resulting in a shorter isoform (GPR120-S) lacking a 16 aa protein segment compared to isoform GPR120-L. The assay platform utilizes HEK-293 cells stably transfected to express the Human GPR120 short form. These cells are first loaded with the Ca^+2 sensitive dye, Fluo-4 NW. Upon stimulation, intracellular released Ca^+2 can bind to the dye and alter its fluorescence intensity. This increase in fluorescence signal, and thus the flux in intracellular [Ca^2+], is detected and quantitated by fluorescence imaging using a FLIPR reader. The effect of the agonist is measured as a function of concentration and used to calculate an EC50 based upon a response curve. […]
In this procedure 4200 cells/well were employed.
A Human GPR120 clone (Genbank accession number NM_001195755.1) was placed into the pcDNA3.1 mammalian expression vector carrying the neomycin resistance gene. A stable mammalian cell was generated by placing the above clone into a HEK293 background. Clonal cells responding to long chain fatty acids had expression levels of GPR120 confirmed by RT-qPCR. Human HEK-GPR120 cells were cultured in Dulbecco's Modified Eagle's Medium (DMEM)/F12 medium supplemented with 10% fetal bovine serum (FBS), 1% L-Glutamine and 1% penicillin/streptomycin and 0.5 mg/ml G-418. Cells were split 2 times a week to keep the cells in the log-phase growth.
In preparation for the assay, HEK cells stably transfected with Human GPR120 (2.5K cells per well in 25 uL growth medium) were seeded into 384-well plates and then incubated overnight (37° C., 5% CO2). The next day, the media was changed to 20 μL assay buffer and the cell starved for 1 h at 37° C. The dye loading solution (2× dye) was prepared using 10 mL assay buffer, 100 μL of 250 mM probenecid, 1 bottle of Component A, and 20 μl of dye in DMSO. Twenty μL of the 2× dye loading buffer was then added to each well. The plates were incubated at 37° C. for 30 min, then at room temperature for an additional 15 minutes, before performing the assay on FLIPR.
The assay was performed on a FLIPR plate reader using the following parameters. Baseline was read for 10 seconds at 1 sec intervals. The program was set to transfer 10 μL of ligand from compound plate to cell plate after baseline reading. Aspiration was executed at: 10 μL/sec speed, 4.6 μL height; Dispensing was executed at: 30 μL/sec speed, 45 μL height. After compound addition, each well was read for 300 sec, with measurements collected at 1 sec intervals.
The kinetic data from the FLIPR was based upon a 5 minute window for data collection. The fluorescence of each sample well was used for individual calculations of a normalized RFU value, which was defined as maximum response minus the minimum response. The normalized fluorescence reading (RFU) was calculated as follows:
The data were fitted to a sigmoidal dose-response curve with a variable Hill slope (<2) using nonlinear regression with GraphPad Prism 5.0 to calculate the EC50 values. The Fitting Equation was: Y=Bottom+(Top−Bottom)/(1+10^((Log EC50−X)*HillSlope)), where X is the log of the concentration and Y is the response.
Background: A change in cytosolic calcium serves as a functional read-out for many receptors and channels.

A further experiment deals with GPR40 (UniProt O14842). Nature of the experiment: GPR40 Calcium Flux Assay. To be noted: transfected HEK293 cells stably expressing human or rat GPR40; species not given. Format: cell-based. The method, then:
Biological Example 3: In Vitro Assay
Compounds were tested in a calcium flux assay using transfected HEK293 cells stably expressing either human GPR40 or rat GPR40. Human GPR40 expressing cells were cultured in DMEM-High Glucose media supplemented with 10% fetal bovine serum, 1×L-Glutamine, 1× Penicillin/Streptomycin and 500 μg/mL G418. Rat GPR40 expressing cells were cultured in DMEM-High Glucose media supplemented with 10% fetal bovine serum and 1 μg/mL puromycin. Cells were plated into poly-D-lysine coated 384-well plates and cultured overnight in a 37° C. humidified tissue culture incubator under 5% CO2/90% O2 atmosphere.
On the day of the experiment, the culture media was replaced with assay buffer (HBSS, 20 mM HEPES, 0.1% BSA) and the cells incubated at 37° C. for 1 h. Calcium-sensitive fluorescent dye (Fluo 8 No-Wash Calcium Dye, ABD Bioquest) was then added and the cells incubated for another 30 min at 37° C. followed by 15 min at room temperature while protected from the light. The cell plate and a plate of diluted compounds of Formula (I) were loaded into a fluorescent plate reader that added compounds onto the cells while measuring the fluorescence intensity of each well. The plate reader recorded fluorescence intensity at 1 second intervals for 8 min and provided the data for analysis in an Excel format. EC50 values were calculated using Prism (GraphPad) software.

As usually defined, the EC50 is the concentration that produces a half-maximal response. For `Cc1ccc(C2=C(COc3ccc(CCC(=O)O)c(C)c3C)COCC2)cc1` [compound 655], the EC50 in experiment [1] is 94 nM. Consider `C=C(C1=C(COc2ccc(CCC(=O)O)cc2F)COCC1)c1ccccc1` [compound 723], for which the concentration for a half-maximal effect (EC50) is above 5000 nM in experiment [1] and above 10000 nM at GPR40.

As to `O=C(O)CCc1ccc(OCC2=C(C3CCCC3)CCOC2)cc1` [compound 738], the EC50 in experiment [1] was 927 nM; at GPR40, 2680 nM.

In the case of `O=C(O)CCc1cc(F)c(OCC2=C(Cc3ccccc3)CCOC2)c(F)c1` [compound 714], the EC50 is 1930 nM in experiment [1] and above 10000 nM on GPR40. Take `CC(C)CCC1=C(COc2ccc(CCC(=O)O)c(C(F)(F)F)c2)COCC1` [compound 722]: the EC50 in experiment [1] was found to be 1190 nM; at GPR40, 973 nM. For `Cc1cc(Cl)ccc1C1=C(COc2ccc(CCC(=O)O)c(C(F)(F)F)c2)COCC1` [compound 682], in experiment [1], the concentration giving a half-maximal response (EC50) was above 5000 nM. For `COc1cccc(C2=C(COc3ccc(CCC(=O)O)c(C)c3C)COCC2)c1` [compound 656], in experiment [1], the concentration giving a half-maximal response (EC50) worked out at 868 nM. The same measure, in the same setting: the figure for `O=C(O)CCc1ccc(OCC2=C(Cc3ccccc3)CCOC2)cc1C(F)(F)F` [compound 678] is above 5000 nM. Turning to `O=C(O)CCc1ccc(OCC2=C(Cc3ccccc3)CCOC2)cc1Cl` [compound 713], the figures for the concentration for a half-maximal effect (EC50) (in experiment [1]; on GPR40) were above 5000 nM and 703 nM, respectively. On to `Cc1c(CCC(=O)O)ccc(OCC2=C(c3ccccc3F)CCOC2)c1C` [compound 651], for which the EC50 in experiment [1] came out at 202 nM. As for `C=C(C1=C(COc2ccc(CCC(=O)O)c(Cl)c2)COCC1)c1ccccc1` [compound 720], the results for the concentration for a half-maximal effect (EC50) (in experiment [1]; at GPR40) were above 5000 nM and 339 nM, respectively.

On to `O=C(O)CCc1ccc(OCC2=C(C3CCCC3)CCOC2)cc1Cl` [compound 727], for which the values for the 50% effective concentration (EC50) (in experiment [1]; at GPR40) were 1600 nM and 386 nM, respectively. In the case of `COc1ccc(CC2=C(COc3ccc(CCC(=O)O)cc3)COCC2)cc1` [compound 697], the EC50 is above 5000 nM in experiment [1] and around 18900 nM at GPR40. The corresponding values for `Cc1ccc(CC2=C(COc3ccc(CCC(=O)O)c(C(F)(F)F)c3)COCC2)cc1` [compound 692] are above 5000 nM and 324 nM. `Cc1c(CCC(=O)O)ccc(OCC2=C(c3ccc(Cl)cc3F)CCOC2)c1C` [compound 667]: in experiment [1], the EC50 is 115 nM. For the molecule `O=C(O)CCc1ccc(OCC2=C(CC3CCCCC3)CCOC2)cc1C(F)(F)F` [compound 718], the EC50 in experiment [1] is above 5000 nM; on GPR40, 1430 nM. `COc1ccccc1C1=C(COc2ccc(CCC(=O)O)c(C(F)(F)F)c2)COCC1` [compound 676]: in experiment [1], the EC50 is above 5000 nM. In the case of `O=C(O)CCc1ccc(OCC2=C(C3CCCC3)CCOC2)cc1C(F)(F)F` [compound 731], the EC50 turned out to be 818 nM in experiment [1] and 93 nM on GPR40. The corresponding values for `O=C(O)CCc1ccc(OCC2=C(c3ccc(OC(F)(F)F)cc3)CCOC2)cc1C(F)(F)F` [compound 686] are above 5000 nM and 740 nM. For the molecule `COc1cc(Cl)ccc1C1=C(COc2ccc(CCC(=O)O)c(C)c2C)COCC1` [compound 662], the EC50 in experiment [1] stood at 2200 nM. On to `CC(C1=C(COc2ccc(CCC(=O)O)c(C(F)(F)F)c2)COCC1)c1ccccc1` (centres unmarked) [compound 701], for which the EC50 in experiment [1] is above 5000 nM; on GPR40 it was 145 nM. For the molecule `CC(C)CC1=C(COc2ccc(CCC(=O)O)c(Cl)c2)COCC1` [compound 732], the concentration for a half-maximal effect (EC50) in experiment [1] is above 5000 nM; on GPR40 it was 1060 nM. Consider `O=C(O)CCc1ccc(OCC2=C(c3ccccc3OC(F)(F)F)CCOC2)cc1C(F)(F)F` [compound 674], for which the EC50 in experiment [1] was above 5000 nM.

For the molecule `Cc1c(CCC(=O)O)ccc(OCC2=C(c3ccc(Cl)c(F)c3)CCOC2)c1C` [compound 663], the half-maximal effective concentration (EC50) in experiment [1] was determined as 170 nM.

Consider `Cc1cccc(C)c1C1=C(COc2ccc(CCC(=O)O)c(C(F)(F)F)c2)COCC1` [compound 671], for which the EC50 in experiment [1] was above 5000 nM. With `Cc1cc(CCC(=O)O)ccc1OCC1=C(c2ccc(F)cc2)C[S+]([O-])C1` (centres unmarked) [compound 627], the 50% effective concentration (EC50) in experiment [1] was above 5000 nM. On the same count and under the same terms, the result for `Cc1cc(CCC(=O)O)ccc1OCC1=C(c2ccccc2)COC1` [compound 630] reads 229 nM; that for `CC(C)Oc1ccccc1C1=C(COc2ccc(CCC(=O)O)c(C(F)(F)F)c2)COCC1` [compound 677], above 5000 nM.

For `Cc1cc(C)c(C2=C(COc3ccc(CCC(=O)O)c(C(F)(F)F)c3)COCC2)cc1C` [compound 681], in experiment [1], the EC50 was above 5000 nM. As for `Cc1ccc(C2=C(COc3ccc(CCC(=O)O)c(C(F)(F)F)c3)COCC2)cc1` [compound 668], the concentration for a half-maximal effect (EC50) in experiment [1] stood at 498 nM. Same read-out and setting: the result for `Cc1c(CCC(=O)O)ccc(OCC2=C(c3cccnc3)CCOC2)c1C` [compound 654] reads above 5000 nM; that for `Cc1c(CCC(=O)O)ccc(OCC2=C(c3ccc(F)cc3F)CCOC2)c1C` [compound 660], 149 nM.

For the molecule `Cc1cc(C2=C(COc3ccc(CCC(=O)O)c(C)c3C)COCC2)ccc1F` [compound 661], the concentration giving a half-maximal response (EC50) in experiment [1] came to 527 nM. Same read-out and setting: the result for `O=C(O)CCc1ccc(OCC2=C(c3ccc(Cl)c(Cl)c3)CCOC2)cc1C(F)(F)F` [compound 680] reads 2630 nM; that for `CC1(C)CCC=C1C1=C(COc2ccc(CCC(=O)O)c(C(F)(F)F)c2)COCC1` [compound 670], above 5000 nM; that for `O=C(O)CCc1ccc(OCC2=C(c3cccc4c3OC(F)(F)O4)CCOC2)cc1C(F)(F)F` [compound 673], above 5000 nM. Still for that read-out and setting: the result for `Cc1ccc(C2=C(COc3ccc(CCC(=O)O)c(C(F)(F)F)c3)COCC2)cc1C` [compound 683] reads 1060 nM; that for `COc1cc(C2=C(COc3ccc(CCC(=O)O)c(C)c3C)COCC2)ccc1Cl` [compound 664], above 5000 nM.

Regarding `Cc1cc(C2=C(COc3ccc(CCC(=O)O)c(C(F)(F)F)c3)COCC2)ccc1Cl` [compound 679], the concentration giving a half-maximal response (EC50) in experiment [1] came out at 1920 nM.

Regarding `Cc1ccc(C2=C(COc3cc(C(F)(F)F)c(CCC(=O)O)c(C(F)(F)F)c3)COCC2)cc1` [compound 666], the EC50 in experiment [1] amounted to 2750 nM. `Cc1ccc(C2=C(COc3ccc(CCC(=O)O)c(C(F)F)c3)COCC2)cc1` [compound 665]: in experiment [1], the concentration giving a half-maximal response (EC50) is 832 nM. Still for that read-out and setting: the result for `Cc1cccc(C)c1C1=C(COc2ccc(CCC(=O)O)c(Cl)c2)COCC1` [compound 669] reads above 5000 nM.
